The source of these data is publication PMC6150025, “Novel Mixed-Type Inhibitors of Protein Tyrosine Phosphatase 1B. Kinetic and Computational Studies” (Molecules : A Journal of Synthetic Chemistry and Natural …, 2017).

The target of the test is T1, PTP1B (Homo sapiens, UniProt P18031).
T1 construct: encodes for PTP1B (residues 1–321); inferred from the pET28A vector, NdeI/BamHI cloning and Ni-agarose purification) (N); made in house; host or cells: E. coli BLR
T1 sequence (P18031 1-321): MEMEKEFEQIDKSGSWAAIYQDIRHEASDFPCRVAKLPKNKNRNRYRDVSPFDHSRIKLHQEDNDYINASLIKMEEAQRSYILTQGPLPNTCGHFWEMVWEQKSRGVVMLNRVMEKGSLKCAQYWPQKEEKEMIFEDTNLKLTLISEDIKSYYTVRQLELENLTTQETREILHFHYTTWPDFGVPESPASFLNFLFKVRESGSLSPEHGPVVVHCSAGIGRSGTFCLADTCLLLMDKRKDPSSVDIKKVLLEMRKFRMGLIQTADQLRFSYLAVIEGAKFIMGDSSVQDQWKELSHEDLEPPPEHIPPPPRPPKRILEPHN
Briefly: PTP1B enzymatic inhibition assay (pNPP substrate). The format is biochemical. The settings on record: for Ki: Lineweaver-Burk analysis, mixed type model; for Inhibition Type: Lineweaver-Burk plots; for IC50: curves at different concentration of each compound; for Vmax / Km: from fit of the kinetic data for each inhibitor; for α: mixed type inhibition model; for Km: pNPP. As to the method:
The PTP1B activity was measured based on the Goldstein method. The assay was performed with a final reaction volume of 500 µL in HEPES buffer (50 mM HEPES, 1mM DTT, 2 mM EDTA and 150 mM NaCl, pH 7.0), DMSO (10%) and p-nitrophenol phosphate (pNPP) as substrate (50 mM), the reaction was started with the PTP1B (1.5 µg/mL). After 30 min of incubation at 37 °C, the reaction was stopped by the addition of 500 µL of NaOH 5N reading the absorbance at 405 nm. The number of hydrolyzed moles of pNPP was determined using the molar extinction coefficient of the product pNP (18,500 M^−1 cm^−1).
Inhibition assays were performed under the above described conditions, adding to the reaction each one of the molecules at a final concentration of 200 µM. The concentration that inhibits 50% (IC50) of the PTP1B activity was determined through curves at different concentration of each compound, adjusting the data to the equation reported elsewhere. The inhibition type and constant were obtained by the measurement of the initial velocities of hydrolysis varying the substrate concentration in a range of 2–30 µM, in absence or presence of fixed concentrations of each inhibitor. For compound 1 the concentrations used were 3, 6, 10 and 20 µM; in the case of compound 2 were 2, 4, 6, 8, and 10 µM; and for compound 3 were 20, 50, 70 and 90 µM. The experimental data were analyzed through the Lineweaver-Burk plot using the software Sigma Plot V12.3 (Systat Software, Inc., San Jose, CA, USA).

[1] abbreviates: 200 µM compound, pNPP 50 mM, 30 min, 37 °C.

`CCCCCc1ccc(S(=O)(=O)Nc2ncccc2OCc2cc(F)cc(F)c2)cc1` [Compound 8, N-{3-[(3,5-difluorobenzyl)oxy]pyridin-2-yl}-4-pentylbenzenesulfonamide]: the inhibition at 200 µM was 74% under setting [1] and 64% (Table S1, 200 µM compound).

As to `O=C(O)c1ccccc1N1CCOCC1` [2-morpholinobenzoic acid], the inhibition at 200 µM (Table S1, 200 µM compound) is 37%.

Take `CCCc1cc(=O)oc2cc(OC(C)C(=O)NNS(=O)(=O)c3cccc(C(F)(F)F)c3)ccc12` (stereo not drawn) [Compound 6, N′1-{2-[(2-oxo-4-propyl-2H-chromen-7-yl)oxy]propanoyl}-3-(trifluoromethyl)benzene-1-sulfonohydrazide]: the inhibition at 200 µM under setting [1] amounted to 84%.

As to `C[S+]([O-])c1nc2cc(Cl)c(Oc3cccc4ccccc34)cc2[nH]1` (stereo not drawn) [Compound 10], the inhibition at 200 µM under setting [1] was 65%.

Take `CSc1nc2cc(C(=O)O)ccc2n1C` [1-methyl-2-(methylsulfanyl)-1H-benzimidazole-5-carboxylic acid]: under “Table S1, 200 µM compound”, the “% Inhibition (200 µM)” value was found to be 33%.

With `O=C(O)C=CC(=O)Nc1ccc(N2CCCCCC2)c(NC(=O)C=CC(=O)O)c1` [4-{2-(1-azepanyl)-5-[(4-hydroxy-4-oxo-2-butenoyl)amino]anilino}-4-oxo-2-butenoic acid], the “% Inhibition (200 µM)” value (Table S1, 200 µM compound) was found to be 58%.

For `O=C(CSc1nnnn1-c1ccc(O)cc1)c1ccc2c(c1)OCO2` [Compound 4, 1-(1,3-benzodioxol-5-yl)-2-{[1-(4-hydroxyphenyl)-1H-1,2,3,4-tetraazol-5-yl]sulfanyl}-1-ethanone], under setting [1], the inhibition at 200 µM came out at 88%.

`O=S(=O)(c1ccc(NC(=S)Nc2ccc3c(c2)OCO3)cc1)N1CCCCC1` [N-(1,3-benzodioxol-5-yl)-N'-[4-(piperidinosulfonyl)phenyl]thiourea]: where the note is “Table S1, 200 µM compound”, the “% Inhibition (200 µM)” value came to 32%.

Regarding `O=C(O)c1csc(-c2ccc(C(F)(F)F)cc2)n1` [2-[4-(trifluoromethyl)phenyl]-1,3-thiazole-4-carboxylic acid], the “% Inhibition (200 µM)” value (Table S1, 200 µM compound) came out at 34%.

Consider `N#Cc1ccc(-c2c(NC(=O)NS(=O)(=O)c3ccccc3Cl)oc(-c3ccco3)c2C#N)cc1` [2-[({[(2-chlorophenyl)sulphonyl]amino}carbonyl)amino]-4-cyano-3-(4-cyanophenyl)-5-(2-furyl)furan], for which, under “Table S1, 200 µM compound”, the “% Inhibition (200 µM)” value is listed as 64%.

For the compound `CC1C(=NO)CC(c2ccc([N+](=O)[O-])cc2)NC1c1ccc([N+](=O)[O-])cc1` (stereo not drawn) [3-methyl-2,6-bis(4-nitrophenyl)tetrahydropyridin-4(1H)-one oxime], the “% Inhibition (200 µM)” value (Table S1, 200 µM compound) is 54%.

As for `CN(C)S(=O)(=O)Oc1ccc(-c2noc(-c3ccc(Oc4cc(Cl)cc(Cl)c4)o3)n2)cc1` [Compound 5, 4-{5-[5-(3,5-dichlorophenoxy)-2-furyl]-1,2,4-oxadiazol-3-yl}phenyl-N,N-dimethylsulfamate], the inhibition at 200 µM under setting [1] is 85%.

For the compound `O=C(Nc1nc2cc(Oc3cccc(Cl)c3Cl)c(Cl)cc2[nH]1)C(F)(F)F` [Compound 3, N-[6-Chloro-5-(2,3-dichlorophenoxy)-1H-benzimidazol-2-yl]-2,2,2-trifluoroacetamide], the Ki came out at 41.3 µM, the “Inhibition Type” value is reported as “Mixed”, the IC50 stood at 31.3 µM and the Vmax is recorded as 10 µmol/min/mg. Besides, the α worked out at 3.3 and the Michaelis constant (Km) worked out at 4.1 mM. Besides, the inhibition at 200 µM under setting [1] turned out to be 92%.

Regarding `COC(=O)c1cc(S(=O)(=O)NCC2CN(Cc3ccccc3)CN(Cc3ccccc3)C2)oc1C` [methyl 5-({[(1,3-dibenzylhexahydro-5-pyrimidinyl)methyl]amino}sulfonyl)-2-methyl-3-furoate], the “% Inhibition (200 µM)” value (Table S1, 200 µM compound) is 50%.

`COC(=O)c1cc2nc(SCC(=O)Nc3ccc([N+](=O)[O-])cn3)[nH]c2cc1Cl` [methyl 6-chloro-2-({2-[(5-nitropyridin-2-yl)amino]-2-oxoethyl}sulfanyl)-1H-benzimidazole-5-carboxylate]: the “% Inhibition (200 µM)” value (Table S1, 200 µM compound) amounted to 63%.

As for `CSc1nc2cc(Cl)c(C(=O)Nc3nc4cc(Oc5cccc(Cl)c5Cl)c(Cl)cc4[nH]3)cc2n1C` [Compound 1, 5-Chloro-N-[6-chloro-5-(2,3-dichlorophenoxy)-1H-benzimidazol-2-yl]-1-methyl-2-(methylthio)-1H-benz-imidazole-6-carboxamide], the Ki was found to be 5.2 µM, the “Inhibition Type” value was “Mixed”, the IC50 is 7.5 µM and the maximum rate (Vmax) was 8.8 µmol/min/mg. The α is listed as 1.4 and the Km was found to be 6.7 mM. The inhibition at 200 µM under setting [1] stood at 100%.

Take `CSc1nc2cc(C(=O)N/N=C/c3ccc([N+](=O)[O-])o3)ccc2n1C` [1-methyl-2-(methylsulfanyl)-N'-[(E)-(5-nitrofuran-2-yl)methylidene]-1H-benzimidazole-5-carbohydrazide]: where the note is “Table S1, 200 µM compound”, the “% Inhibition (200 µM)” value was determined as 34%.

`COc1cc2nc(SCC(=O)Nc3ccc(F)c(Cl)c3)n(-c3ccccc3)c(=O)c2cc1OC` [Compound 7, N-(3-chloro-4-fluorophenyl)-2-[(6,7-dimethoxy-4-oxo-3-phenyl-3,4-dihydro-2-quinazolinyl)sulfanyl]acetamide]: under setting [1], the inhibition at 200 µM is 80%.

`O=C(CSc1nc2cc(Oc3cccc4ccccc34)c(Cl)cc2[nH]1)Nc1ncc([N+](=O)[O-])s1` [2-({6-chloro-5-[(naphthalen-1-yl)oxy]-1H-benzimidazol-2-yl}sulfanyl)-N-(5-nitro-1,3-thiazol-2-yl)acetamide]: under “Table S1, 200 µM compound”, the “% Inhibition (200 µM)” value was 63%.

For `COc1cc(C(CC(=O)O)CC(=O)N2CCC(n3cccc3)CC2)cc(OC)c1OC` (stereo not drawn) [5-oxo-5-[4-(1H-pyrrol-1-yl)piperidino]-3-(3,4,5-trimethoxyphenyl)pentanoic acid], for the setting “Table S1, 200 µM compound”, the “% Inhibition (200 µM)” value was determined as 38%.

Turning to `COC(=O)c1cccc2nc(Cc3ccc([N+](=O)[O-])cc3)sc12` [methyl 2-[(4-nitrophenyl)methyl]-1,3-benzothiazole-7-carboxylate], under “Table S1, 200 µM compound”, the “% Inhibition (200 µM)” value was 64%.

As to `COC(=O)c1cc2nc(SCC(=O)Nc3ncc([N+](=O)[O-])s3)[nH]c2cc1Cl` [methyl 6-chloro-2-({2-[(5-nitro-1,3-thiazol-2-yl)amino]-2-oxoethyl}sulfanyl)-1H-benzimidazole-5-carboxylate], where the note is “Table S1, 200 µM compound”, the “% Inhibition (200 µM)” value was 63%.

For `Cc1cc(-c2nn(C)c(=O)c3ccccc23)cc(C)c1OCC(=O)NNC(=O)Nc1ccccc1` [N1-phenyl-2-{2-[2,6-dimethyl-4-(3-methyl-4-oxo-3,4-dihydrophthalazin-1-yl)phenoxy]acetyl}hydrazine-1-carboxamide], the “% Inhibition (200 µM)” value (Table S1, 200 µM compound) was found to be 52%.

On to `O=C(CSc1nc2cc(Oc3cccc4ccccc34)c(Cl)cc2[nH]1)Nc1nccs1` [Compound 2, 2-[6-Chloro-5-(1-naphthalyloxy)-1H-benzimidazol-2-yl]thio-N-(thiazol-2-yl)acetamide], for which the Ki turned out to be 4.2 µM, the “Inhibition Type” value is on record as “Mixed”, the IC50 was found to be 8.4 µM and the maximal velocity (Vmax) is 16 µmol/min/mg. Besides, the α came out at 2.9 and the Km was 6.8 mM. Further, the inhibition at 200 µM under setting [1] was 99%.

Turning to `Cn1c(SCCn2ccnc2)nc2ccc(Cl)cc21` [6-chloro-2-{[2-(1H-imidazol-1-yl)ethyl]sulfanyl}-1-methyl-1H-benzimidazole], for the setting “Table S1, 200 µM compound”, the “% Inhibition (200 µM)” value stood at 32%.

Consider `O=C1COc2cc(O)ccc21` [6-hydroxy-2,3-dihydrobenzo[b]furan-3-one], for which the “% Inhibition (200 µM)” value (Table S1, 200 µM compound) came out at 37%.

As usually defined, the inhibition is how much of the control response was suppressed. For orientation: Ki means a dissociation constant, usually derived from enzyme kinetics or from competition with a known ligand. What is called IC50 is the concentration at which inhibition is half-maximal. A word on the Vmax: it is the top rate of the reaction or transport when substrate is in excess. As usually defined, the Km is the substrate concentration at which the rate is half of its maximum.
